Experimental data as given in US10815444B2, “Use of specific derivatives of quaternized nitrogen compounds as additives in fuels and lubricants” (BASF SE, priority 2013, dated 2020).

Columns and labels:
[1] = Experimental: The partition coefficient is determined by means of various methods according to the value.
[2] = DW10 Na power-loss test (keep-clean); settings: 8 h, 1 ppm Na + 20 ppm dodecenylsuccinic acid and 150 ppm additive
Experimental: To examine the efficacy of the inventive compounds against power loss caused by metals such as Na, K and others (and not by Zn as described above), an IDID engine test was used. During the run, the power is measured to CEC F-098-08.

[3] = XUD9 engine test (keep clean), flow restriction, CEC F-23-01; settings: 0.1 mm needle stroke, Aral EN590 B7 fuel
From the text: 1. XUD9 Test—Determination of Flow Restriction
The procedure was according to the standard provisions of CEC F-23-01.
Test according to above procedure CEC F-23-01 in Peugeot XUD9 engine.

[4] = Motor oil compatibility to standard DGMK 531 1-A (filtration time); settings: for filtration time: 10 g additive + 10 g motor oil, 90° C. three days, 500 ml EN590 B7 diesel, 0.8 μm membrane filter, 200 mbar; for filterability / motor oil compatibility pass/fail: DGMK 531 1-A
Experimental: Determination to standard DGMK 531 1-A with EN590 B7 fuel from Aral, unadditized, and Wintershall Multi-Rekord Top 15W-40 motor oil.
10 g in each case of motor oil and 10 g of the additive to be tested are weighed into a 500 ml Erlenmeyer flask and homogenized. The flask containing the mixture is loosely sealed with a glass stopper and conditioned in a drying cabinet at a temperature of 90±3° C. for three days. After the conditioning, the sample is cooled in a fume hood at room temperature for one hour. The mixture is then made up with 500 ml of diesel fuel and mixed thoroughly. A membrane filter of diameter 50 mm and pore size 0.8 μm is inserted into the filtration apparatus. Mixture is filtered through the membrane filter with the aid of a reduced pressure of 200 mbar. The filtration time is measured.

[5] = DW10 Na soap IDID test (clean-up), exhaust gas temperatures on cold start; settings: CU, 70 mg/kg active compound
Experimental: 3. IDID Test—Determination of Additive Effect on Internal Injector Deposits
The formation of deposits within the injector was characterized by the deviations in the exhaust gas temperatures of the cylinders at the cylinder outlet on cold starting of the DW10 engine.
To promote the formation of deposits, 1 mg/l of sodium salt of an organic acid, 20 mg/l of dodecenylsuccinic acid and 10 mg/l of water were added to the fuel.
The test is conducted as a dirty-up clean-up test (DU-CU).
Thereafter, the CU fuel is used to start the CU without deinstalling and cleaning the injectors. After the CU run over 8 h, after a rest phase of at least eight hours, a cold start of the engine is conducted, followed by idling for 10 minutes. The evaluation is effected by the comparison of the temperature profiles for the individual cylinders after the cold start in the DU and CU runs.
The IDID test indicates the formation of internal deposits in the injector. The characteristic used in this test is the exhaust gas temperature of the individual cylinders. In an injector system without IDIDs, the exhaust gas temperatures of the cylinders increase homogeneously.
The temperature sensors are beyond the cylinder head outlet in the exhaust gas manifold. Significant deviation of the individual cylinder temperatures (e.g. >20° C.) indicates the presence of internal injector deposits (IDIDs).
The tests (DU and CU) are each conducted with run time 8 h. The one-hour test cycle from CEC F-098-08 (see FIG. 1) is run through 8 times in each case. In the event of deviations of the individual cylinder temperatures of greater than 45° C. from the mean for all 4 cylinders, the test is stopped early.
To examine the influence of the additives on the performance of direct injection diesel engines, as a further test method, the IDID engine test was conducted, in which the exhaust gas temperatures in the cylinders at the cylinder outlet were determined on cold starting of the DW10 engine. (cf. method description above)
A DW10 direct injection diesel engine with common rail system from the manufacturer Peugeot was used, which was employed in the CEC F-098-08 test method. The method that was used derived from CEC F-098-08, with the difference that, rather than 1 ppm of Zn for artificial inducement of formation of deposits, 1 ppm by weight of sodium naphthenate and 20 ppm by weight of dodecenylsuccinic acid were used in each case. The fuel used was a commercial B7 diesel fuel according to EN 590 from Aral. The test duration is shortened to 8 hours compared to method CEC F-098-08. After respective DU and CU phases, the engine is cooled and then started at idling speed.
II. CU (clean-up) After the DU phase, the engine is operated with additized fuel without cleaning the injectors beforehand.
Again, the exhaust gas temperatures of the 4 cylinders (“C1” to “C4”) were measured at each of the cylinder outlets after 0 minutes (“ϑ0”) and after 5 minutes (“ϑ5”). The results of the exhaust gas temperature measurements with average values (“Δ”) and the greatest differences from Δ in the downward (“−”) and upward (“+”) directions for the two test runs are summarized in the following overview: […]

[6] = DW10 Zn engine test (clean-up), engine power; settings: 25 mg/kg active compound
Experimental: 2.2. DW10 Dirty-Up Clean-Up (DU-CU)
The DU-CU test is based on CEC test procedure F-098-08 Issue 5. The procedure is described in Issue 5 of the test procedure (CEC F-98-08). This is done using the same test setup and the PEUGEOT DW10 engine type.
The DU-CU test consists of two individual tests which are run in succession. The first test serves to form deposits (DU), the second to remove the deposits (CU). After the DU, the power loss is determined. After the end of the DU run, the engine is not operated for at least 8 hours and is cooled to ambient temperature. Thereafter, the CU fuel is used to start the CU without deinstalling and cleaning the injectors. The deposits and power loss ideally decline over the course of the CU test.
The initial power P0,cu [kW] is calculated from the measured torque at full load 4000/min directly after the test has started and the engine has run hot in the CU. The procedure is likewise described in Issue 5 of the test procedure.
The final power (Pend,cu) is determined in the 12th cycle in stage 12 (see table, FIG. 2). Here too, the operation point is full load 4000/min. Pend,cu [kW] is calculated from the torque measured.
The test was conducted with a Peugeot DW10 engine, which is used in CEC F-98-08 procedure, except that more severe conditions were used in the dirty-up part:
I. Dirty-up: the more severe conditions allow distinctly faster formation of injector deposits than under standard CEC F-98-08 conditions: The engine was operated at full load (4000 rpm) with EN590 B7 Aral, unadditized, containing 3 mg/kg Zn, for 4 h.

[7] = Storage stability of formulations at −20° C.; type: physicochemical
Experimental: The following formulations were tested for storage stability at −20° C.: […]
a) 1:5 Dilution in Solvent Naphtha (5 Parts):
b) 1:5:1 Dilution in 2-Ethylhexyl Nitrate (5 Parts) and Solvent Naphtha (1 Part)

[8] = 1:5:1 dilution in 2-ethylhexyl nitrate (5 parts) and Solvent Naphtha (1 part)
[9] = 1:5 dilution in Solvent Naphtha (5 parts)

## CCCCC(CC)CO (stereo not drawn) [2-ethylhexanol]
[1]
  partition coefficient log Pow: 2.9

## CCCCCO [pentanol]
[1]
  partition coefficient log Pow: 1.3

## C12/14-NMe3-2-Propylheptyl Oxalate [Inventive example 1]
[2]
  Change in power in the test: +0.2%
  Engine power after the test: 96.6 kW
  Engine power before the test: 96.4 kW
[3]; dosage 24 mg/kg
  Flow restriction: 46.6%
[3]; dosage 36 mg/kg
  Flow restriction: 14.5%
[3]; dosage 48 mg/kg
  Flow restriction: 4.5%
[4]
  filtration time: 114 s
  filterability: good filterability
  motor oil compatibility pass/fail: pass
[5]
  average exhaust gas temperature (Δ): 77 °C
  evaluation of IDID clean-up: the IDIDs formed were removed
  greatest difference from Δ in the downward direction: −8 °C
  greatest difference from Δ in the upward direction: +5 °C
[5]; after 0 minutes (ϑ0)
  exhaust gas temperature cylinder C1: C1: 28 °C
  exhaust gas temperature cylinder C2: C2: 27 °C
  exhaust gas temperature cylinder C3: C3: 27 °C
  exhaust gas temperature cylinder C4: C4: 26 °C
[5]; after 5 minutes (ϑ5)
  exhaust gas temperature cylinder C1: C1: 78 °C
  exhaust gas temperature cylinder C2: C2: 82 °C
  exhaust gas temperature cylinder C3: C3: 77 °C
  exhaust gas temperature cylinder C4: C4: 69 °C
[6]; 1 ppm Zn in EN590 B7, after dirty-up
  Engine power on commencement of clean-up test: 90.2 kW
[6]; 1 ppm Zn in EN590 B7, clean-up
  Engine power after engine running for 3 h: 97.7 kW
[6]; 1 ppm Zn in EN590 B7, clean-up lasting 8 h
  Engine power until the end of the clean-up test: 97.7 kW
[7]; [8]
  storage stability observation: clear liquid after 14 days
[7]; [9]
  storage stability observation: clear liquid after 60 days

## C12/14-NMe3-Methyl Oxalate [Comparative example 1, reference compound]
[4]
  filtration time: > 300 s
  filterability: very poor filterability
  motor oil compatibility pass/fail: fail
[7]; [8]
  storage stability observation: solidification after 1 day
[7]; [9]
  storage stability observation: solidification after 44 days
